Results as given in patent publication US12599136B2, “Substituted isophthalic acid diamides and their use as herbicides” (Bayer Aktiengesellschaft, priority 2020, dated 2026).

Tests used:
Assay type in all cases: in vivo
[1] = test system: Cyperus esculentus; experiment: Pre-emergence herbicidal action against CYPES; conditions: visual score after 3 weeks vs untreated controls
Method in brief: (§1)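 Seeds sown in sandy loam, soil-covered; compound sprayed on soil surface pre-emergence. Application: WP/EC, 600–800 l/ha, 0.2% wetting agent. Readout: visual % damage at 3 weeks.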

[2] = test system: Avena fatua; experiment: Pre-emergence herbicidal action against AVEFA; conditions: visual score after 3 weeks vs untreated controls
Method in brief: as §1

[3] = test system: Abutilon theophrasti; experiment: Pre-emergence herbicidal action against ABUTH; conditions: visual score after 3 weeks vs untreated controls
Method in brief: as §1

[4] = test system: Alopecurus myosuroides; experiment: Post-emergence herbicidal action against ALOMY
Method in brief: (§2)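 Sandy loam, greenhouse; treatment 2–3 weeks after sowing, one-leaf stage. Aqueous suspension or emulsion from WP/EC sprayed on foliage (600–800 l/ha, 0.2% wetting agent). Readout: visual % action, ~3 weeks.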

[5] = test system: Setaria viridis; experiment: Pre-emergence herbicidal action against SETVI
Method in brief: as §1

[6] = test system: Viola tricolor; experiment: Post-emergence herbicidal action against VIOTR; conditions: 80 g/ha
Method in brief: as §2

[7] = test system: Pharbitis purpurea; experiment: Post-emergence herbicidal action against PHBPU; conditions: visual assessment about 3 weeks after treatment
Method in brief: as §2

[8] = test system: Alopecurus myosuroides; experiment: Pre-emergence herbicidal action against ALOMY; conditions: visual score after 3 weeks vs untreated controls
Method in brief: as §1

[9] = test system: Avena fatua; experiment: Post-emergence herbicidal action against AVEFA; conditions: visual assessment about 3 weeks after treatment
Method in brief: as §2

[10] = test system: Cyperus esculentus; experiment: Post-emergence herbicidal action against CYPES; conditions: 80 g/ha, visual assessment about 3 weeks after treatment
Method in brief: as §2

[11] = test system: Amaranthus retroflexus; experiment: Pre-emergence herbicidal action against AMARE; conditions: visual score after 3 weeks vs untreated controls
Method in brief: as §1

[12] = test system: Veronica persica; experiment: Pre-emergence herbicidal action against VERPE; conditions: 320 g/ha
Method in brief: as §1

[13] = test system: Matricaria inodora; experiment: Pre-emergence herbicidal action against MATIN; conditions: visual score after 3 weeks vs untreated controls
Method in brief: as §1

[14] = test system: Polygonum convolvulus; experiment: Post-emergence herbicidal action against POLCO; conditions: visual assessment about 3 weeks after treatment
Method in brief: as §2

[15] = test system: Abutilon theophrasti; experiment: Post-emergence herbicidal action against ABUTH
Method in brief: as §2

[16] = test system: Polygonum convolvulus; experiment: Pre-emergence herbicidal action against POLCO
Method in brief: as §1

[17] = test system: Setaria viridis; experiment: Post-emergence herbicidal action against SETVI; conditions: visual assessment about 3 weeks after treatment
Method in brief: as §2

[18] = test system: Echinochloa crus-galli; experiment: Pre-emergence herbicidal action against ECHCG; conditions: 320 g/ha; visual score after 3 weeks vs untreated controls
Method in brief: as §1

[19] = test system: Hordeum murinum; experiment: Pre-emergence herbicidal action against HORMU; conditions: visual score after 3 weeks vs untreated controls
Method in brief: as §1

[20] = test system: Matricaria inodora; experiment: Post-emergence herbicidal action against MATIN; conditions: 80 g/ha, visual assessment about 3 weeks after treatment
Method in brief: as §2

[21] = test system: Pharbitis purpurea; experiment: Pre-emergence herbicidal action against PHBPU; conditions: 320 g/ha; visual score after 3 weeks vs untreated controls
Method in brief: as §1

[22] = test system: Veronica persica; experiment: Post-emergence herbicidal action against VERPE; conditions: visual assessment about 3 weeks after treatment
Method in brief: as §2

[23] = test system: Echinochloa crus-galli; experiment: Post-emergence herbicidal action against ECHCG; conditions: visual assessment about 3 weeks after treatment
Method in brief: as §2

[24] = test system: Lolium rigidum; experiment: Pre-emergence herbicidal action against LOLRI
Method in brief: as §1

[25] = test system: Stellaria media; experiment: Post-emergence herbicidal action against STEME; conditions: visual assessment about 3 weeks after treatment
Method in brief: as §2

[26] = test system: Amaranthus retroflexus; experiment: Post-emergence herbicidal action against AMARE; conditions: visual assessment about 3 weeks after treatment
Method in brief: as §2

[27] = test system: Stellaria media; experiment: Pre-emergence herbicidal action against STEME
Method in brief: as §1

[28] = test system: Lolium rigidum; experiment: Post-emergence herbicidal action against LOLRI
Method: Seeds of monocotyledonous and dicotyledonous weed and crop plants are laid out in sandy loam soil in wood-fiber pots, covered with soil and cultivated in a greenhouse under good growth conditions. 2 to 3 weeks after sowing, the test plants are treated at the one-leaf stage. The compounds of the invention, formulated in the form of wettable powders (WP) or as emulsion concentrates (EC), are then sprayed onto the green parts of the plants in the form of an aqueous suspension or emulsion at a water application rate equivalent to 600 to 800 l/ha, with addition of 0.2% wetting agent. After the test plants have been left to stand in the greenhouse under optimal growth conditions for about 3 weeks, the action of the preparations is assessed visually in comparison to untreated controls (herbicidal action in percent (%): 100% activity=the plants have died, 0% activity=like control plants). […] The tables below illustrate, in an illustrative manner, the post-emergence herbicidal action of the compounds of the invention, the herbicidal activity being stated in percent.

[29] = test system: Viola tricolor; experiment: Pre-emergence herbicidal action against VIOTR
Method in brief: as §1

Cn1nnnc1NC(=O)c1ccc(C(F)(F)F)c(C(=O)N2CCCC2)c1Cl [Example 1-152]
Pre-emergence action against CYPES ([1]; 80 g/ha): 90%
Pre-emergence action against CYPES ([1]; 320 g/ha): 100%
Pre-emergence action against AVEFA ([2]; 80 g/ha): 100%
Pre-emergence action against AVEFA ([2]; 320 g/ha): 100%
Pre-emergence action against ABUTH ([3]; 20 g/ha): 100%
Pre-emergence action against ABUTH ([3]; 80 g/ha): 100%
Pre-emergence action against ABUTH ([3]; Dosage column 320 g/ha (heading prints 3200 g/ha)): 100%
Post-emergence action against ALOMY ([4]; 20 g/ha): 80%
Post-emergence action against ALOMY ([4]; 80 g/ha): 90%
Pre-emergence action against SETVI ([5]; 20 g/ha): 100%
Pre-emergence action against SETVI ([5]; 80 g/ha): 100%
Pre-emergence action against SETVI ([5]; 320 g/ha): 100%
Post-emergence action against VIOTR in % [6]: 90%
Post-emergence action against PHBPU in % ([7]; 5 g/ha): 80%
Post-emergence action against PHBPU in % ([7]; 20 g/ha): 90%
Post-emergence action against PHBPU in % ([7]; 80 g/ha): 90%
Pre-emergence action against ALOMY ([8]; 20 g/ha): 80%
Pre-emergence action against ALOMY ([8]; 80 g/ha): 90%
Pre-emergence action against ALOMY ([8]; 320 g/ha): 100%
Post-emergence action against AVEFA in % ([9]; 20 g/ha): 90%
Post-emergence action against AVEFA in % ([9]; 80 g/ha): 100%
Post-emergence action against CYPES in % [10]: 80%
Pre-emergence action against AMARE ([11]; 20 g/ha): 100%
Pre-emergence action against AMARE ([11]; 80 g/ha): 100%
Pre-emergence action against AMARE ([11]; 320 g/ha): 100%
Pre-emergence action against VERPE [12]: 90%
Pre-emergence action against MATIN ([13]; 20 g/ha): 100%
Pre-emergence action against MATIN ([13]; 80 g/ha): 100%
Pre-emergence action against MATIN ([13]; 320 g/ha): 100%
Post-emergence action against POLCO in % ([14]; 5 g/ha): 80%
Post-emergence action against POLCO in % ([14]; 80 g/ha): 80%
Post-emergence action against ABUTH ([15]; 5 g/ha): 100%
Post-emergence action against ABUTH ([15]; 20 g/ha): 100%
Post-emergence action against ABUTH ([15]; 80 g/ha): 100%
Pre-emergence action against POLCO ([16]; 80 g/ha): 80%
Pre-emergence action against POLCO ([16]; 320 g/ha): 100%
Post-emergence action against SETVI in % ([17]; 5 g/ha): 100%
Post-emergence action against SETVI in % ([17]; 20 g/ha): 100%
Post-emergence action against SETVI in % ([17]; 80 g/ha): 100%
Pre-emergence action against ECHCG [18]: 100%
Pre-emergence action against HORMU ([19]; 80 g/ha): 90%
Pre-emergence action against HORMU ([19]; 320 g/ha): 100%
Post-emergence action against MATIN in % [20]: 90%
Pre-emergence action against PHBPU [21]: 80%
Post-emergence action against VERPE in % ([22]; 20 g/ha): 90%
Post-emergence action against VERPE in % ([22]; 80 g/ha): 90%
Post-emergence action against ECHCG in % ([23]; 5 g/ha): 80%
Post-emergence action against ECHCG in % ([23]; 20 g/ha): 90%
Post-emergence action against ECHCG in % ([23]; 80 g/ha): 100%
Pre-emergence action against LOLRI ([24]; 80 g/ha): 80%
Pre-emergence action against LOLRI ([24]; 320 g/ha): 100%
Post-emergence action against STEME in % ([25]; 5 g/ha): 90%
Post-emergence action against STEME in % ([25]; 20 g/ha): 90%
Post-emergence action against STEME in % ([25]; 80 g/ha): 100%
Post-emergence action against AMARE in % ([26]; 5 g/ha): 100%
Post-emergence action against AMARE in % ([26]; 20 g/ha): 100%
Post-emergence action against AMARE in % ([26]; 80 g/ha): 100%
Pre-emergence action against STEME ([27]; 20 g/ha): 90%
Pre-emergence action against STEME ([27]; 80 g/ha): 100%
Pre-emergence action against STEME ([27]; 320 g/ha): 100%
Post-emergence action against LOLRI in % ([28]; 20 g/ha): 90%
Post-emergence action against LOLRI in % ([28]; 80 g/ha): 100%
Pre-emergence action against VIOTR ([29]; 80 g/ha): 100%
Pre-emergence action against VIOTR ([29]; 320 g/ha): 100%
